Data from patent US8642614B2, “Toll-like receptor modulators and uses thereof” (The Regents of the University of Colorado, a body corporate, priority 2009, dated 2014).
Like-named read-outs stand apart in the source and are kept apart here.

Experiments:
[1] = Hargreaves test (radiant heat withdrawal), intrathecal injection with or without morphine; details: rat
TLR4 [2] = biological target: T1, TLR4 (Homo sapiens, UniProt O00206); test: Secreted alkaline phosphatase (SEAP) reporter gene assay in HEK293 cells transfected with TLR4; assay type: cell-based; details: HEK293, SEAP reporter downstream of NF-κB promoter; dose-dependent manner
T1 sequence (O00206 24-839): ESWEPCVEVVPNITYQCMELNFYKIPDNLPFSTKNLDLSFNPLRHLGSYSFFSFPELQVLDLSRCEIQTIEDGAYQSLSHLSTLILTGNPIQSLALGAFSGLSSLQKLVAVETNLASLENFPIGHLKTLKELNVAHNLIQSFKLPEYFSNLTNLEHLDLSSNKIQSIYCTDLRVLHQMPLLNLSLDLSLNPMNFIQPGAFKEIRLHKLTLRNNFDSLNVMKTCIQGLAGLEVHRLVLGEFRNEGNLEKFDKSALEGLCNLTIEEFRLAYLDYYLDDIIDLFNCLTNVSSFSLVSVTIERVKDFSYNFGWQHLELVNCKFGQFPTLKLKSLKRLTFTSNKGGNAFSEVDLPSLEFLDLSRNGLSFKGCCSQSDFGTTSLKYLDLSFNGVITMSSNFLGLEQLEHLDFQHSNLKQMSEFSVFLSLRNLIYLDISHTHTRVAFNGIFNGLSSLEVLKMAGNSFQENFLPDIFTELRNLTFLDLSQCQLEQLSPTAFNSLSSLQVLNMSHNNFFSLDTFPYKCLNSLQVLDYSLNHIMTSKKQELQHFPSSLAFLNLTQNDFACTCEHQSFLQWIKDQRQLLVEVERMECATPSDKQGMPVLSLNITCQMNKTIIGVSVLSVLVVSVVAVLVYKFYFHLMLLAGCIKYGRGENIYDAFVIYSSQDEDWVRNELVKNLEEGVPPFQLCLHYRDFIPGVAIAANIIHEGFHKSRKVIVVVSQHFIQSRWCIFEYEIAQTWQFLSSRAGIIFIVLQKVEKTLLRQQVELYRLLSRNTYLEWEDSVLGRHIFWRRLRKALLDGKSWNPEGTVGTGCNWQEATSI
Experimental: FIGS. 3A and 3B. A small dose of chemotactic peptide C5a (25 ng/mL) that stimulates PI3K15 was able to rescue the Akt signaling inhibited by either compound. Global translocation of Akt1-GFP to the plasma membrane was observed, confirming that these cells retained normal Akt signaling transduction functions. Akt1 is directly downstream of TLR4 in the signal transduction pathway. […] Murine macrophages express a variety of TLRs and immune receptors. […] The activity of Compound A-1 was further confirmed in an established TLR4 assay in HEK293 cells, where a secreted alkaline phosphatase reporter gene is located downstream from the NF-κB promoter. Compound A-1 was effective at blocking the downstream proinflammatory effectors of TLR4 in a dose-dependent manner.
Materials for the SEAP assay were obtained from Applied Biosystems (CA, USA) and utilized according to the manufacturer's specifications. Human embryonic kidney 293 (HEK293) cells stably transfected with TLR4 and a secreted alkaline phosphatase (SEAP) reporter gene was obtained from Invivogen (CA, USA). […]
A sample of CSF buffer (15 μL) from each well was collected and transferred to an opaque white 96 well plate (Microfluor 2, Thermo Scientific MA, USA). […] After 20 min, the luminescence of each well was measured using a plate reader (Beckman Coulter, DTX 880, CA, USA) with multimode analysis software.

[3] = system: LPS-induced TLR4 activation; test: Real time microscopy of Akt1-GFP translocation (TLR4 signaling) in RAW264.7 macrophages; assay type: cell-based, mouse; details: RAW 264.7 Akt1-GFP, LPS 2 ng/ml
Experimental: Lipopolysaccharide (LPS)-induced TLR4 activation initiates the phosphoinositide 3-kinase (PI3K) cascade, triggering translocation of Akt1 to the plasma membrane in murine macrophages. RAW 264.7 cells transfected with an Akt1-GFP reporter13 were treated with drug then activated with LPS. In the absence of LPS, Akt1-GFP was uniformly diffused throughout the cytosol as observed by fluorescence microscopy. Addition of LPS (2 ng/ml) caused a rapid translocation of Akt1-GFP to the plasma membrane, lowering the Akt1-GFP concentration in the cytosol. Doses of Compound A-1 as low as 2 μM and Compound A-2 as low as 200 nM substantially abolished LPS-induced activation of the signaling pathway.
FIGS. 3A and 3B. A small dose of chemotactic peptide C5a (25 ng/mL) that stimulates PI3K15 was able to rescue the Akt signaling inhibited by either compound. […]
TLR4 signaling leads to the simultaneous activation of three parallel intra-cellular signaling pathways. […] Baseline fluorescence was captured for 5 frames, following which vehicle or antagonist was added in 200 μl. Imaging continued for a further 20 frames at which time LPS or test agonist (200 μl) were applied and monitored for a further 20 frames. […] GFP-Akt1 cytosolic clearance was quantified using ImageJ and expressed as a normalized change in cytoplasmic fluorescence over time.

[4] = rat, in vivo
[5] = system: HEK293 cells stably transfected with TLR4; test: Cell viability assay (Trypan Blue); assay type: cell-based, human; details: tested concentrations, FIG. 4
Experimental: Human embryonic kidney 293 (HEK293) cells were stably transfected with TLR4 and necessary assembly and signalling proteins (MD2, CD-14, LPSBP, etc.). Cells were cultured in DMEM supplemented with 10% FBS, penicillin (100 U/ml), streptomycin ([…]), L-glutamine (2 mM), 0.1 mg/ml normocin (InvivoGen, CA, USA) and 1×HEK Blue selection reagent (InvivoGen, CA, USA). Cells were implanted in 6 cm plates and grown to 65-75% confluency by incubating at 37° C., prior to drug treatment. On the day of treatment, media was removed from the 6 cm plate and replaced with cerebrospinal fluid (CSF) buffer supplemented with drug treatment. After 24 h incubation at 37° C., CSF was removed and cells were agitated with 0.05% Trypsin plus 0.2 g/l EDTA (Invitrogen, CA, USA) and re-suspended in fresh DMEM supplemented media. After re-suspension, a […] was taken from each 6 cm plate, mixed gently with 100 μl 0.4% Trypan Blue (Sigma, Mo., USA) and allowed to sit for 5 min. The ratio of blue stained cells to total cells was then quantified using a Bright Line 0.1 mm depth hemocytometer (VWR, PA, USA) under a Nikon TMS light microscope (Nikon Instrumentals, CA USA).

TLR4 [6] = biological target: T1, TLR4; test: Whole blood model of inflammation (cytokine secretion after LPS or E. coli); assay type: cell-based
Experimental: Test of TLR4 inhibition by compounds of the invention with respect to impact on secretion of cytokines IL-6, IL-8, (TNFα) and IL1β in the whole blood model of inflammation was performed using the procedure described by Mollnes et al. (Blood, 2002, 100, 1869-1877) using (i) LPS to compare the two variants of 2126-HCl in a restricted set-up, (ii) gram negative bacteria to initiate innate immune response that involves both TLR4/MD2, TLR2, as well as the complement system (compare to anti-CD14 and compstatin).

TLR4 [7] = biological target: TLR4 (Homo sapiens, UniProt O00206+Q9Y6Y9)
Chain of TLR4 (Homo sapiens, UniProt O00206+Q9Y6Y9) (O00206 24-839, species assumed): as the sequence (O00206 24-839) above
Chain of TLR4 (Homo sapiens, UniProt O00206+Q9Y6Y9) (Q9Y6Y9 19-160, species assumed): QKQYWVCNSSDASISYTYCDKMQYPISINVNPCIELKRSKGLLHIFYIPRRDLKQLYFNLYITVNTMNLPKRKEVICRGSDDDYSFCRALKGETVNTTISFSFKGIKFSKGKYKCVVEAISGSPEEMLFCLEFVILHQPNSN

[8] = clinically employed (−)-opioids

In the case of CCOc1ccc(OCC(O)CN(C)Cc2c(C)nn(Cc3ccccc3Cl)c2C)cc1 (stereo not drawn) [Compound A-1, 1-(((1-(2-chlorobenzyl)-3,5-dimethyl-1H-pyrazol-4-yl)methyl)(methyl)amino)-3-(4-ethoxyphenoxy)propan-2-ol], the “potentiation of the analgesic effects of morphine” value ([1]; with morphine, maximal analgesia recordable (10 s cut-off) across two hours) is reported as “significantly potentiated”, the “effect on pain responsivity in the absence of co-administered morphine” value ([1]; without morphine) is reported as “no effect” and the “blocking the downstream proinflammatory effectors of TLR4” value (TLR4 [2]) is reported as “effective”. The “dose that substantially abolished LPS-induced activation of the signaling pathway” value [3] was ≤ 2 µM, the “behavioral effects of compound alone” value [4] was “no detectable behavioral effects” and the cellular toxicity [5] was “neither Compound A-1 nor Compound A-2 showed any significant cellular toxicity”.

For CC[C@H](C)[C@H](N)C(=O)N[C@H]1CSSC[C@@H](C(=O)N[C@H](C(N)=O)[C@@H](C)O)NC(=O)[C@H](CCCN=C(N)N)NC(=O)[C@H](Cc2cnc[nH]2)NC(=O)[C@H](Cc2cnc[nH]2)NC(=O)CNC(=O)[C@H](Cc2c[nH]c3ccccc23)NC(=O)[C@H](CC(=O)O)NC(=O)[C@H](CCC(N)=O)NC(=O)[C@H](C(C)C)NC(=O)[C@H](C(C)C)NC1=O [compstatin], the “effect of compstatin on the inhibition of Il-6 levels by anti-CD14 and 2126-HCl” value (TLR4 [6]; E. coli as activator) was “increased the inhibitory effect”, the “reduction of Il-1β plasma levels” value (TLR4 [6]; E. coli stimulation, 2126-HCl 500 μM, compstatin 25 μM) was “about 50%” and the “cytokine release in response to E. coli on addition of compstatin” value (TLR4 [6]; E. coli, added to anti-CD14 or 2126-HCl) was “further decreased”. For the same compound, the cytokine specificity (TLR4 [6]; compstatin itself) was “specific for Il8 and Il-1β” and the “effect on Il-6 secretion / plasma levels” value (TLR4 [6]; whole blood) was “little impact”.

In the case of CCC(=O)C(CC(C)N(C)C)(c1ccccc1)c1ccccc1 (stereo not drawn) [methadone], the TLR4 agonism (TLR4 [7]; [8]) is reported as “TLR4 agonists”.

For CN1CC[C@]23c4c5ccc(O)c4O[C@H]2[C@@H](O)C=C[C@H]3[C@H]1C5 [morphine], the TLR4 agonism (TLR4 [7]) was “TLR4 agonists”.

In the case of COc1ccc2c3c1O[C@H]1C(=O)CC[C@@]4(O)[C@@H](C2)N(C)CC[C@]314 [oxycodone], the TLR4 agonism (TLR4 [7]; [8]) is reported as “TLR4 agonists”.

For CCOC(=O)C1(c2ccccc2)CCN(C)CC1 [pethadine/meperidine], the TLR4 agonism (TLR4 [7]; [8]) was “TLR4 agonists”.
